Measured values published in ChEMBL document CHEMBL3132750, “4-Chlorocolchicine derivatives bearing a thiourea side chain at the C-7 position as potent anticancer agents” (Medchemcomm, 2014).

Assays:
A549 = experiment: Cytotoxicity against human A549 cells assessed as inhibition of cell proliferation after 96 hrs; assay type: functional, cell-based; details: A549, 96 h
Mus musculus [1] = experiment: Toxicity in human HCT116 cells xenografted in BALB/C nude mouse assessed as mouse mortality at 25 mg/kg, iv administered three times on days 1, 5, and 9; assay type: organism-based, HCT-116; set-up: dose 25 mg/kg, route intravenous; details: in vivo
[2] = Metabolic stability in BALB/c mouse hepatic microsomes assessed per mg of microsomal protein at 1 umol/L preincubated for 5 mins by LC-MS/MS method; assay type: ADME, Liver, Microsome; details: 1 µM
Mus musculus [3] = experiment: Toxicity in human HCT116 cells xenografted in BALB/C nude mouse assessed as mouse mortality at 50 mg/kg, iv administered three times on days 1, 5, and 9; assay type: organism-based, HCT-116; set-up: dose 50 mg/kg, route intravenous; details: in vivo
Mus musculus [4] = experiment: Toxicity in human HCT116 cells xenografted in BALB/C nude mouse assessed as weight loss at 50 mg/kg, iv administered three times on days 1, 5, and 9; assay type: organism-based, HCT-116; set-up: dose 50 mg/kg, route intravenous; details: in vivo
HT-29 = experiment: Cytotoxicity against human HT-29 cells assessed as inhibition of cell proliferation after 96 hrs; assay type: functional, cell-based; details: HT-29, 96 h
HCT-116 [5] = experiment: Antitumor activity against human HCT116 cells xenografted in BALB/C nude mouse assessed as tumor growth inhibition rate at 25 mg/kg, iv administered three times on days 1, 5, and 9; assay type: functional; details: read-out: TGI
Mus musculus [6] = experiment: Toxicity in human HCT116 cells xenografted in BALB/C nude mouse assessed as weight loss at 25 mg/kg, iv administered three times on days 1, 5, and 9; assay type: organism-based, HCT-116; set-up: dose 25 mg/kg, route intravenous; details: in vivo
HCT-116 [7] = experiment: Antitumor activity against human HCT116 cells xenografted in BALB/C nude mouse assessed as tumor growth inhibition rate at 50 mg/kg, iv administered three times on days 1, 5, and 9; assay type: functional; details: read-out: TGI
HCT-116 [8] = experiment: Cytotoxicity against human HCT116 cells assessed as inhibition of cell proliferation after 96 hrs; assay type: functional, cell-based; details: HCT-116, 96 h
HCT-116 [9] = experiment: Antitumor activity against human HCT116 cells xenografted in BALB/C nude mouse assessed as tumor growth inhibition rate at 20 mg/kg, iv administered three times on days 1, 5, and 9; assay type: functional; details: read-out: TGI
Mus musculus [10] = experiment: Toxicity in human HCT116 cells xenografted in BALB/C nude mouse assessed as weight loss at 10 mg/kg, iv administered three times on days 1, 5, and 9; assay type: organism-based, HCT-116; set-up: dose 10 mg/kg, route intravenous; details: in vivo
Mus musculus [11] = experiment: Toxicity in human HCT116 cells xenografted in BALB/C nude mouse assessed as mouse mortality at 20 mg/kg, iv administered three times on days 1, 5, and 9; assay type: organism-based, HCT-116; set-up: dose 20 mg/kg, route intravenous; details: in vivo
HCT-116 [12] = experiment: Antitumor activity against human HCT116 cells xenografted in BALB/C nude mouse assessed as tumor growth inhibition rate at 10 mg/kg, iv administered three times on days 1, 5, and 9; assay type: functional; details: read-out: TGI
Mus musculus [13] = experiment: Toxicity in human HCT116 cells xenografted in BALB/C nude mouse assessed as weight loss at 20 mg/kg, iv administered three times on days 1, 5, and 9; assay type: organism-based, HCT-116; set-up: dose 20 mg/kg, route intravenous; details: in vivo
Mus musculus [14] = experiment: Toxicity in human HCT116 cells xenografted in BALB/C nude mouse assessed as mouse mortality at 10 mg/kg, iv administered three times on days 1, 5, and 9; assay type: organism-based, HCT-116; set-up: dose 10 mg/kg, route intravenous; details: in vivo
Mus musculus [15] = experiment: Toxicity in human HCT116 cells xenografted in BALB/C nude mouse assessed as mouse mortality at 40 mg/kg, iv administered three times on days 1, 5, and 9; assay type: organism-based, HCT-116; set-up: dose 40 mg/kg, route intravenous; details: in vivo
HCT-116 [16] = experiment: Antitumor activity against human HCT116 cells xenografted in BALB/C nude mouse assessed as tumor growth inhibition rate at 40 mg/kg, iv administered three times on days 1, 5, and 9; assay type: functional; details: read-out: TGI
Tubulin = Tubulin (Sus scrofa, UniProt P02554+P02550); experiment: Inhibition of tubulin polymerization assessed as reduction in tubulin assembly after 5 mins using pig microtubule protein by spectrophotometry; assay type: protein assay
Mus musculus [17] = experiment: Toxicity in human HCT116 cells xenografted in BALB/C nude mouse assessed as weight loss at 40 mg/kg, iv administered three times on days 1, 5, and 9; assay type: organism-based, HCT-116; set-up: dose 40 mg/kg, route intravenous; details: in vivo

CCN(CC)C(=S)N[C@H]1CCc2c(Cl)c(OC)c(OC)c(OC)c2-c2ccc(OC)c(=O)cc21
IC50 (A549): 10.1 nM | Activity (Mus musculus [1]): Non-toxic | Intrinsic clearance [2]: 541 µL/min/mg | Activity (Mus musculus [3]): Non-toxic | Activity (Mus musculus [4]): Non-toxic | IC50 (HT-29): 6.1 nM | inhibition in vivo at 25 mg/kg (HCT-116 [5]): 29.5% | Activity (Mus musculus [6]): Non-toxic | inhibition in vivo at 50 mg/kg (HCT-116 [7]): 54.6% | IC50 (HCT-116 [8]): 6.9 nM

COc1c(Cl)c2c(c(OC)c1OC)-c1ccc(OC)c(=O)cc1[C@@H](NC(=S)Nc1ccc(N(C)C)cc1)CC2
IC50 (A549): 1.8 nM | Intrinsic clearance [2]: 152 µL/min/mg | inhibition in vivo at 20 mg/kg (HCT-116 [9]): 52.5% | Activity (Mus musculus [10]): Non-toxic | IC50 (HT-29): 0.3 nM | Activity (Mus musculus [11]): Non-toxic | inhibition in vivo at 10 mg/kg (HCT-116 [12]): 32.6% | Activity (Mus musculus [13]): Non-toxic | Activity (Mus musculus [14]): Non-toxic | IC50 (HCT-116 [8]): 1.1 nM

CCNC(=S)N[C@H]1CCc2c(Cl)c(OC)c(OC)c(OC)c2-c2ccc(OC)c(=O)cc21
IC50 (A549): 37.9 nM | Intrinsic clearance [2]: 124 µL/min/mg | inhibition in vivo at 20 mg/kg (HCT-116 [9]): 44.4% | Activity (Mus musculus [15]): Non-toxic | IC50 (HT-29): 8.6 nM | Activity (Mus musculus [11]): Non-toxic | inhibition in vivo at 40 mg/kg (HCT-116 [16]): 62.6% | IC50 (Tubulin): 2360 nM | Activity (Mus musculus [17]): Non-toxic | Activity (Mus musculus [13]): Non-toxic | IC50 (HCT-116 [8]): 7.9 nM

COc1c(Cl)c2c(c(OC)c1OC)-c1ccc(OC)c(=O)cc1[C@@H](NC(=S)N1CCOCC1)CC2
IC50 (A549): 44.9 nM | Activity (Mus musculus [1]): Non-toxic | Intrinsic clearance [2]: 61 µL/min/mg | Activity (Mus musculus [3]): Non-toxic | Activity (Mus musculus [4]): Non-toxic | IC50 (HT-29): 7.2 nM | inhibition in vivo at 25 mg/kg (HCT-116 [5]): 31.3% | Activity (Mus musculus [6]): Non-toxic | inhibition in vivo at 50 mg/kg (HCT-116 [7]): 52.7% | IC50 (HCT-116 [8]): 9.1 nM
